Experimental findings from US20220370537A1, “PHARMACEUTICAL COMPOSITION AND FUNCTIONAL HEALTH FOOD FOR TREATING BENIGN PROSTATIC HYPERPLASIA INCLUDING LAURUS NOBILIS AS ACTIVE INGREDIENT, AND METHOD OF TREATING BENIGN PROSTATIC HYPERPLASIA USING THE SAME” (KOSABIO INC., priority 2020, published 2022) are described below.

Holding throughout (assay type): in vivo, Wistar rats
Series [1] in a line: Prophylactic test: hepatotoxicity and renal function, serum biochemical index. As to conditions: FINA 0.8 mg/kg orally. The protocol:
Male Wistar rats at 8 weeks of age (Samtako, Korea) were acclimated. When the rats weighed about 320 g on average (12 weeks old), they were divided into groups of 5. After removing the testis therefrom, the rats in one of the groups were allowed to revive for about 24 hours. Propionate testosterone was subcutaneously injected at a dose of 7 mg/kg into the castrated group and the normal group to induce prostate hypertrophy for 8 weeks (BPH-induced groups). After induction of prostate hypertrophy for 8 weeks, the rats were treated as follows. Along with testosterone injection, the bay leaf extracts were orally administered at predetermined doses (mg/kg) once a day (seven times a week) for 8 weeks. Separately, Finasteride, which is a commercially available therapeutic agent for benign prostatic hyperplasia, was orally administered to a positive control. For use in biochemical index analysis, blood samples were taken from the rats of all the groups through abdominal veins. The blood sample was coagulated for about 30 min and centrifuged at 10,000 rpm for 5 min to separate sera. The sera thus obtained were measured for liver function index (AST and ALT), lipoprotein levels (total cholesterol (T-CHO), HDL cholesterol (HDL-C), LDL cholesterol (LDL-C)), and kidney function index (creatine), using a biochemical analyzer (AU480, Beckman Coulter, USA) (Table 4).

Series [2] has as its system benign prostatic hyperplasia (testosterone-induced prostate hypertrophy). Description: Therapeutic efficacy on benign prostatic hyperplasia: change in prostate weight and volume. As to conditions: FINA 0.8 mg/kg orally, BPH-induced rats, therapeutic test. How it is done:
(§1) Male Wistar rats at 8 weeks of age (Samtako, Korea) were acclimated. When the rats weighed about 380 g on average (19 weeks old), they were divided into groups of 7.
(§2) After removing the testis therefrom, the rats in one of the groups were allowed to revive for about 24 hours. Propionate testosterone was subcutaneously injected at a dose of 5 mg/kg into the castrated group and the normal group to induce prostate hypertrophy for 8 weeks (BPH-induced groups). After induction of prostate hypertrophy for 8 weeks, the rats were treated as follows. Along with testosterone injection, the bay leaf extracts were orally administered at predetermined doses (mg/kg) once a day (seven times a week) for 8 weeks. Separately, Finasteride, which is a commercially available therapeutic agent for benign prostatic hyperplasia, was orally administered to a positive control.
After completion of the experiment, the rats of all the experimental groups were euthanized. The prostate tissues and main organs were excised therefrom and measured for weight and volume using an electronic scale for animal weights and a caliper (mm^3) (Table 1).

Series [3] shares this test system. Description: Prophylactic effect on benign prostatic hyperplasia: change in prostate weight and volume. The note with it: FINA 0.8 mg/kg orally, BPH-induced rats, prophylactic test. How it is done: Male Wistar rats at 8 weeks of age (Samtako, Korea) were acclimated. When the rats weighed about 320 g on average (12 weeks old), they were divided into groups of 5.
as §2, with “7” for “5”
After completion of the experiment, the rats of all the experimental groups were euthanized. The prostate tissues and main organs were excised therefrom and measured for weight and volume using an electronic scale for animal weights and a caliper (mm^3) (Table 3).

Series [4] is described as follows: Therapeutic test: hepatotoxicity and renal function, serum biochemical index. As to conditions: FINA 0.8 mg/kg orally. The protocol:
as §1, §2
For use in biochemical index analysis, blood samples were taken from the rats of all the groups through abdominal veins. The blood sample was coagulated for about 30 min and centrifuged at 10,000 rpm for 5 min to separate sera. The sera thus obtained were measured for liver function index (AST and ALT), lipoprotein levels (total cholesterol (T-CHO), HDL cholesterol (HDL-C), LDL cholesterol (LDL-C)), and kidney function index (creatine), using a biochemical analyzer (AU480, Beckman Coulter, USA) (Table 2).

In series [1], `CC(C)(C)NC(=O)[C@H]1CC[C@H]2[C@@H]3CC[C@H]4NC(=O)C=C[C@]4(C)[C@H]3CC[C@]12C` [Finasteride] had an ALT of 51.6 U/L, an AST of 140.4 U/L, a CRE of 0.2 mg/dL and an HDL of 43.3 mg/dL. Also, in series [1], the LDL came to 17.0 mg/dL and the T-CHO turned out to be 60.6 mg/dL. Also, in series [2], the Kidney weight is given as 0.65 g, the Liver weight is 10.36 g, the Prostate volume is on record as 3459.59 mm^3 and the “Prostate weight (b)” value amounted to 1.16 g. Besides, in series [2], the “Ratio (b/a*100)” value came out at 0.28% and the “Weight (a)” value was 426.6 g. Further, in series [3], the Kidney weight is 0.58 g, the Liver weight worked out at 8.09 g, the Prostate volume was determined as 4626.31 mm^3 and the “Prostate weight (b)” value is recorded as 1.43 g. In addition, in series [3], the “Ratio (b/a*100)” value came out at 0.43% and the “Weight (a)” value worked out at 328.3 g. Moreover, in series [4], the ALT turned out to be 50.3 U/L, the AST is 83.1 U/L, the CRE is recorded as 0.3 mg/dL and the HDL stood at 43.6 mg/dL. In series [4], this compound had an LDL of 14.1 mg/dL and a T-CHO of 70.7 mg/dL.
